From patent US20260193278A1, “NOVEL PHTHALOCYANINE COMPOUNDS AND THE USE THEREOF FOR THE TREATMENT OF DISEASES” (RHODES UNIVERSITY, priority 2022, published 2026)

Experiments:
Format in all cases: cell-based
[1] = tested on: MCF-7 (human breast adenocarcinoma) cells; assay: In vitro dark cytotoxicity, MCF-7 cells (anticancer studies); conditions: MCF-7, dark; for Min. Death conc. / Cell death: 24 h; for Cell death: at the Min. Death conc.
Method: MCF-7 (human breast adenocarcinoma) cells were cultured in Dulbecco's modified Eagle's medium-10% fetal bovine serum (DMEM-FBS) and PSA (penicillin/streptomycin/Amphotericin B) at 37° C. in an incubator (5% CO2) in 75 cm^2 vented flasks. The cultures were grown as a monolayer. The growth cells were transferred to well plates by trypsinizing with 0.25% trypsin-EDTA. The Pc stock concentrations were prepared by separately dissolving them in DMSO (1%) and diluting in water and the Pc gradient concentration was prepared by taking known aliquots from the stock and finally made up to marked volume with supplemented media with phenol red.
It was studied from […] both in the dark. 100 μL each of the newly prepared gradient Pcs concentration of 0 μg/mL (control), 5 μg/mL, 10 μg/mL, 20 μg/mL, 40 μg/mL, 60 μg/mL 80 μg/mL, 100 μg/mL and 120 μg/mL were administered on the incubated seeded cells. The 96 well cell culture plates containing the cells and the Pcs were incubated at 37° C. and 5% CO2 in the dark for 24 h. After 24 h treatment, the wells were rinsed with 100 μL DPBS. Cell survival was expressed as percentage of control cells (cells without Pcs). Post treatment cell viability was measured using the cell proliferation […] reagent (WST-1 assay) on a Synergy 2 multi-mode microplate reader (BioTek®) at a wavelength of 450 nm according to the following equation 1.

E. coli = assay: Dark toxicity against E. coli, concentration study at 0 min (CFU counting); conditions: in the dark; for Ecoli log CFU/ml (logarithmic reduction value): at the concentration of the μM column; for Ecoli μM (concentration corresponding to the logarithmic reduction): range tested 0-15 μM
Method: (§1) 500 μM stock solutions of the samples were prepared in ultra-pure water (5% DMSO) and used at different concentrations in the biological assays.
(§2) Two bacterial strains were used for the PACT studies; S. aureus as a gram-(+) bacterium and E. coli as a gram-(−) negative bacterium. Stock cultures were grown aerobically in 6 mL of nutrient broth incubated at 37° C. on a rotary shaker (~200 rpm) to obtain bacteria cultures. The incubation was maintained until the optical density of the culture at 600 nm was determined to be between 0.6 and 0.8. The resulting bacterial solution was centrifuged to remove the broth, and bacterial cells were washed three times with PBS. The solution of the bacteria was prepared by diluting with PBS to obtain […] bacteria solutions corresponding to ~10^9 and ~10^8 colony forming units (CFU)/mL, respectively.
(§3) The bacteria/photosensitizer mixtures were incubated in an oven equipped with a shaker for 30 min in the dark at 37° C. before plating. 100 μL of solution was taken from the suspension and was immediately inoculated on agar plates to determine the activity at 0 min without treatment. The number of colonies was then counted on each plate after 18 h of incubation at 37° C. Control treatments were performed in the absence of photosensitizer. All experiments were carried out three times. The data for CFU/mL were converted to the logarithmic form.

S. aureus = assay: Dark toxicity against S. aureus, concentration study at 0 min (CFU counting); conditions: for log reduction (dark toxicity): 0 min; for Staph log CFU/ml (logarithmic reduction value) / Staph μM (concentration corresponding to the logarithmic reduction): in the dark, at 0 min; for Staph log CFU/ml (logarithmic reduction value): at the concentration of the μM column; for Staph μM (concentration corresponding to the logarithmic reduction): range tested 0-10 μM
Method: as §1, §2, §3

| SMILES | optimal concentration to kill the cancer cells [1] [µM] | Min. Death conc. [1] [µM] | Cell death [1] [%] | cancer cells killed at the optimal concentration [1] [%] | Ecoli log CFU/ml (logarithmic reduction value) (E. coli) [log CFU/ml] | Ecoli μM (concentration corresponding to the logarithmic reduction) (E. coli) [μM] | destruction of bacteria (FIG. 2) (S. aureus; at 0.5 μM) | log reduction (dark toxicity) (S. aureus; at 0.5-10 μM) | Staph log CFU/ml (logarithmic reduction value) (S. aureus) [log CFU/ml] | Staph μM (concentration corresponding to the logarithmic reduction) (S. aureus) [μM] | log reduction (dark toxicity) (S. aureus; at 10 μM) |
| --- | --- | --- | --- | --- | --- | --- | --- | --- | --- | --- | --- |
| C[n+]1c(-c2ccc(Oc3ccc4c(c3)C3=Nc5c6ccc(Oc7ccc(-c8[nH]c9cc(Cl)cc(Cl)c9[n+]8C)cc7)cc6c6[n]5[Co][n]5c(c7ccc(Oc8ccc(-c9[nH]c%10cc(Cl)cc(Cl)c%10[n+]9C)cc8)cc7c5=NC5=NC(=N6)c6cc(Oc7ccc(-c8[nH]c9cc(Cl)cc(Cl)c9[n+]8C)cc7)ccc65)=NC4=N3)cc2)[nH]c2cc(Cl)cc(Cl)c21.[I-].[I-].[I-].[I-] [Compound 200] | 40 | 40 | 80.9 | 80.9 | 8.79 | 1 | complete destruction | 9.63 | 9.61 | 0.5 |  |
| C[n+]1c(-c2ccc(Oc3ccc4c(c3)C3=Nc5c6ccc(Oc7ccc(-c8[nH]c9cc(Cl)cc(Cl)c9[n+]8C)cc7)cc6c6[n]5[Cu][n]5c(c7ccc(Oc8ccc(-c9[nH]c%10cc(Cl)cc(Cl)c%10[n+]9C)cc8)cc7c5=NC5=NC(=N6)c6cc(Oc7ccc(-c8[nH]c9cc(Cl)cc(Cl)c9[n+]8C)cc7)ccc65)=NC4=N3)cc2)[nH]c2cc(Cl)cc(Cl)c21.[I-].[I-].[I-].[I-] [Compound 201] | 120 | 120 | 45.4 | 45.4 | 8.79 | 12.5 |  |  | 9.61 | 8 | 9.63 |
| C[n+]1c(-c2ccc(Oc3ccc4c(c3)C3=Nc5c6ccc(Oc7ccc(-c8[nH]c9cc(Cl)c(Cl)cc9[n+]8C)cc7)cc6c6[n]5[Zn][n]5c(c7ccc(Oc8ccc(-c9[nH]c%10cc(Cl)c(Cl)cc%10[n+]9C)cc8)cc7c5=NC5=NC(=N6)c6cc(Oc7ccc(-c8[nH]c9cc(Cl)c(Cl)cc9[n+]8C)cc7)ccc65)=NC4=N3)cc2)[nH]c2cc(Cl)c(Cl)cc21.[I-].[I-].[I-].[I-] [Compound 207] |  | 120 | 38.3 |  | 8.79 | 2.5 |  |  | 9.31 | 4 |  |
| C[n+]1c(-c2ccc(Oc3ccc4c(c3)C3=Nc5c6ccc(Oc7ccc(-c8[nH]c9cc(Cl)c(Cl)cc9[n+]8C)cc7)cc6c6[n]5[Co][n]5c(c7ccc(Oc8ccc(-c9[nH]c%10cc(Cl)c(Cl)cc%10[n+]9C)cc8)cc7c5=NC5=NC(=N6)c6cc(Oc7ccc(-c8[nH]c9cc(Cl)c(Cl)cc9[n+]8C)cc7)ccc65)=NC4=N3)cc2)[nH]c2cc(Cl)c(Cl)cc21.[I-].[I-].[I-].[I-] [Compound 208] |  | 20 | 78.4 |  | 8.79 | 1 |  |  | 9.31 | 2 |  |
| C[n+]1c(-c2ccc(Oc3ccc4c(c3)C3=Nc5c6ccc(Oc7ccc(-c8[nH]c9cc(Cl)c(Cl)cc9[n+]8C)cc7)cc6c6[n]5[Cu][n]5c(c7ccc(Oc8ccc(-c9[nH]c%10cc(Cl)c(Cl)cc%10[n+]9C)cc8)cc7c5=NC5=NC(=N6)c6cc(Oc7ccc(-c8[nH]c9cc(Cl)c(Cl)cc9[n+]8C)cc7)ccc65)=NC4=N3)cc2)[nH]c2cc(Cl)c(Cl)cc21.[I-].[I-].[I-].[I-] [Compound 209] |  | 20 | 80.4 |  | 8.79 | 2.5 |  |  | 9.31 | 10 |  |
| C[n+]1c(-c2ccc(Oc3ccc4c(c3)C3=Nc5c6ccc(Oc7ccc(-c8[nH]c9cc(F)cc(Br)c9[n+]8C)cc7)cc6c6[n]5[Zn][n]5c(c7ccc(Oc8ccc(-c9[nH]c%10cc(F)cc(Br)c%10[n+]9C)cc8)cc7c5=NC5=NC(=N6)c6cc(Oc7ccc(-c8[nH]c9cc(F)cc(Br)c9[n+]8C)cc7)ccc65)=NC4=N3)cc2)[nH]c2cc(F)cc(Br)c21.[I-].[I-].[I-].[I-] [Compound 229] |  | 10 | 39.4 |  | 8.79 | 10 |  |  | 9.25 | 0.5 |  |
| C[n+]1c(-c2ccc(Oc3ccc4c(c3)C3=Nc5c6ccc(Oc7ccc(-c8[nH]c9cc(F)cc(Br)c9[n+]8C)cc7)cc6c6[n]5[Co][n]5c(c7ccc(Oc8ccc(-c9[nH]c%10cc(F)cc(Br)c%10[n+]9C)cc8)cc7c5=NC5=NC(=N6)c6cc(Oc7ccc(-c8[nH]c9cc(F)cc(Br)c9[n+]8C)cc7)ccc65)=NC4=N3)cc2)[nH]c2cc(F)cc(Br)c21.[I-].[I-].[I-].[I-] [Compound 230] |  | 5 | 54.9 |  | 8.79 | 1 |  |  | 9.25 | 0.5 |  |
| C[n+]1c(-c2ccc(Oc3ccc4c(c3)C3=Nc5c6ccc(Oc7ccc(-c8[nH]c9cc(F)cc(Br)c9[n+]8C)cc7)cc6c6[n]5[Cu][n]5c(c7ccc(Oc8ccc(-c9[nH]c%10cc(F)cc(Br)c%10[n+]9C)cc8)cc7c5=NC5=NC(=N6)c6cc(Oc7ccc(-c8[nH]c9cc(F)cc(Br)c9[n+]8C)cc7)ccc65)=NC4=N3)cc2)[nH]c2cc(F)cc(Br)c21.[I-].[I-].[I-].[I-] [Compound 231] |  | 5 | 56.08 |  | 8.79 | 12.5 |  |  | 9.25 | 0.5 |  |
| C[n+]1c(-c2ccc(Oc3ccc4c(c3)C3=Nc5c6ccc(Oc7ccc(-c8[nH]c9cc(Br)cc(Cl)c9[n+]8C)cc7)cc6c6[n]5[Zn][n]5c(c7ccc(Oc8ccc(-c9[nH]c%10cc(Br)cc(Cl)c%10[n+]9C)cc8)cc7c5=NC5=NC(=N6)c6cc(Oc7ccc(-c8[nH]c9cc(Br)cc(Cl)c9[n+]8C)cc7)ccc65)=NC4=N3)cc2)[nH]c2cc(Br)cc(Cl)c21.[I-].[I-].[I-].[I-] [Compound 233] |  | 60 | 91.7 |  | 8.79 | 1 |  |  | 9.25 | 4 |  |
| C[n+]1c(-c2ccc(Oc3ccc4c(c3)C3=Nc5c6ccc(Oc7ccc(-c8[nH]c9cc(Br)cc(Cl)c9[n+]8C)cc7)cc6c6[n]5[Co][n]5c(c7ccc(Oc8ccc(-c9[nH]c%10cc(Br)cc(Cl)c%10[n+]9C)cc8)cc7c5=NC5=NC(=N6)c6cc(Oc7ccc(-c8[nH]c9cc(Br)cc(Cl)c9[n+]8C)cc7)ccc65)=NC4=N3)cc2)[nH]c2cc(Br)cc(Cl)c21.[I-].[I-].[I-].[I-] [Compound 234] |  | 60 | 90.4 |  | 8.79 | 2.5 |  |  | 9.25 | 0.5 |  |
